How the values were obtained:
[1] = Pheromone content of carnauba wax cubes after manufacture and 1 month storage (Soxhlet extraction, Gas Chromatography); format: physicochemical; details: 12 mm carnauba wax cubes with 5 mg codlemone
Procedure: Carnauba wax was melted in a pan on a hot plate at 105° C. and was poured into […] mould blocks. Theses were allowed to cool and were weighed, giving an average of 1.4 g per block. From this, it was calculated that 50 mg of codlemone should be added to every 14 g of molten carnauba wax to make ten […] cubes each containing 5 mg. These cubes were made using technical grade 99% pure Codlemone (E,E)-8,10-Dodecadien-1-ol (E8E10-120H) sourced from Bedoukian Research Inc., Danbury, Conn., US and the cubes were then cooled and stored in heat sealed aluminum sachets in a freezer for 1 month. They were then removed from the freezer and the pheromone was extracted from each cube by Soxhlet extraction with ethanol and analyzed by Gas Chromatography.

[2] = Release from two phase 100% carnauba wax lures in Eppendorf tubes (entrainment system, GC/GC-MS, wind tunnel ageing); format: physicochemical; details: two-layer carnauba wax; wind tunnel 5 km/h, 27° C.; retested over 20 days; FIG. 1
Procedure: In this experiment Eppendorf tubes were filled with two layers of molten carnauba wax containing different concentrations of Codlemone (E,E)-8,10-Dodecadien-1-ol (E8E10-120H). […] In the lower part of the tube, 0.75 cm^3 of molten carnauba wax containing 5 mg of codlemone and the above compounds was poured in and allowed to solidify. The next step was to add a 0.25 cm^3 cap of molten carnauba wax with 1 mg of codlemone and the above compounds to the top of the solid wax. The concept behind this experiment was that the upper layer would reduce the initial surge of pheromone that is an unwanted characteristic of all known lures when opened for the first time. The hope was that by putting a low dose in the upper layer, the initial surge would be smaller and as the pheromone in this low dose layer disappeared it would be replaced by a steady flow of pheromone permeating through it from the higher concentration layer beneath.
The lures were formulated and immediately frozen and stored in impermeable aluminum sachets until they were placed into an entrainment system comprising a sealed glass sample chamber and an adsorbent tube filled with Porapak Q, obtained from Supelco, Bellefonte, Pa. Semiochemical(s) released over 2-hour intervals were transferred to the adsorbent by use of a vacuum pump, and eluted for GC/GC-MS analysis using dichloromethane. […]

| SMILES | lost during manufacturing, storage for 1 month and analysis [1] | initial loading remaining in the cubes ([1]; average, stored in heat sealed aluminum sachets in a freezer for 1 month) | release rate of compounds from the Eppendorf wax lures [2] |
| --- | --- | --- | --- |
| C/C=C/C=C/CCCCCCCO [Codlemone, (E,E)-8,10-Dodecadien-1-ol] | 2.5% | 97.5% |  |
| CCCCCCCCCCCCC [Tridecane (13:HC), Tridecane] |  |  | releases much more quickly than Decyl Acetate (10:Ac) |

Source: patent US20090084024A1, “TRAP OR DISPENSER” (EXOSECT LIMITED, priority 2006, published 2009)
